Data on one substance can be found in patent publication US20250099517A1, “Use of Lactobacillus reuteri Y7 strain for prevention or treatment of ocular diseases” (Taipei Medical University, priority 2023, published 2025).

Assay type in all cases: in vivo, C57BL/6 mice
For test [1], the system named is Occludin, Claudin-1, ZO-1 gene expression. Briefly: q-PCR of tight junction gene expression in colons. Particulars: for gene expressions of ZO-1: p<0.05. The protocol: (§1) The C57BL/6 mice, which weighed between 23 and 25 g, were divided into seven groups randomly. In each group, the six mice induced by blue light successfully were incorporated in experiments. The samples dissolved in deuterium-depleted water (DDW) were fed to mice through oral tubes once a day. The groups were named and introduced as follows: • (1) Solvent not classified group (NC): The mice were fed with 0.2 ml deuterium-depleted water (DDW) through tubes; • (2) Negative control group (Blue light (BL)): The mice were fed with 0.2 ml deuterium-depleted water (DDW) through tubes and exposed to blue light; • (3) Low-dosage Y7 probiotics group […]): The mice were fed with low-dosage Y7 probiotics (probiotic counts of 1.0×10^8 CFU/ml dissolved in 0.2 ml DDW per day) and exposed to blue light; • (4) High-dosage Y7 probiotics group […]): The mice were fed with high-dosage Y7 probiotics (probiotic counts of 1.0×10^9 CFU/ml dissolved in 0.2 ml DDW per day) and exposed to blue light; • (5) Positive control group (lutein (LU)): The mice were fed with lutein and exposed to blue light. The recommended human dosage of lutein is 30 mg. The mouse cage (48×25×20 cm) placed inside a stainless ventilated box was equipped with blue light boards as blue light sources around and above. In the experiment of animals exposed to blue light, six-week-old mice staying in the mouse cage were fed with drinking water as well as fodders and exposed to 400 Lux blue light illumination under the light-dark cycle of 12-hour light and 12-hour dark. The experiment was aimed at causing mice' late dry macular disease induced by chronic light injuries for simulating a human being's macular disease after long-term exposure to short-wavelength blue light from 3C products in daily life. The eyes of a mouse sacrificed were collected for the following purposes. RNAs extracted with Trizol were reverse-transcribed to cDNAs. Then, the real-time quantitative polymerase chain reaction was enabled to detect gene expressions related to inflammatory hormones and apoptosis such as TNF-α, IL-1B, IL-6, Bax, Bcl-2, Caspase1, Caspase3 and NLRP3 for comparisons with the endogenous level of β-actin, GAPDH or 18S rRNA. [table] The gene expressions related to tight junctions of mice' eyes, buccal mucosas and colons after induction of blue light were analyzed through q-PCR and shown in FIG. 10a, FIG. 10d and FIG. 10g for Occludin, FIG. 10b, FIG. 10e and FIG. 10h for Claudin-1 and FIG. 10c, FIG. 10f and FIG. 10i for ZO-1, respectively.

The test system is the same in test [2]. Briefly: q-PCR of tight junction gene expression in eyes. Particulars: for gene expressions of Occludin compared with the LU group: p<0.05. The protocol: as §1
Test [3] concerns Bax, Bcl-2, Caspase3 gene expression. The experiment in a line: q-PCR of apoptosis-related gene expression in eyes. The protocol:
as §1, with “apoptosis in test” for “tight junctions of”, “for example, Bax (FIG. 9a), Bcl-2 (FIG. 9b)” for “buccal mucosas”, “Caspase3 (FIG. 9c),” for “colons after induction of blue light”, “analyzed” for “analyzed through q-PCR and shown”, “the experiment.” for “FIG. 10a, FIG. 10d and FIG. 10g for Occludin, FIG. 10b, FIG. 10e and FIG. 10h for Claudin-1 and FIG. 10c, FIG. 10f and FIG. 10i for ZO-1, respectively.”

The mark [4] stands for this setting: after intervention of Y7 probiotics (dosage groups not distinguished).

In the case of “Lactobacillus reuteri Y7 [Y7 probiotics]”, in test [1] (Y7H high-dosage group), the “gene expressions of Claudin-1” value was “ascending trend”, the “gene expressions of Occludin” value was “ascending trend” and the “gene expressions of ZO-1” value is reported as “increased significantly”. Also, in test [1] (Y7L low-dosage group), the “gene expressions of Claudin-1” value is recorded as “ascending trend”, the “gene expressions of Occludin” value is reported as “ascending trend” and the “gene expressions of ZO-1” value was “increased significantly”. In addition, in test [2] (Y7H high-dosage group), the “gene expressions of Claudin-1 compared with the LU group” value is “descending trend”, the “gene expressions of ZO-1 compared with the LU group” value is “descending trend” and the “gene expressions of Occludin compared with the LU group” value is “decreased significantly”. In test [2] (Y7L low-dosage group), the “gene expressions of Claudin-1 compared with the LU group” value is “descending trend”, the “gene expressions of ZO-1 compared with the LU group” value was “descending trend” and the “gene expressions of Occludin compared with the LU group” value is on record as “decreased significantly”. For the same substance, in test [3] (Y7H high-dosage group), the “gene expression of Bcl-2 compared with the BL group” value is “increased significantly”. In test [3] (Y7L low-dosage group versus LU group), the “gene expression of Bax, closeness to the NC group” value was “closer to the NC group than the LU group”. Further, in test [3] (setting [4]), the “gene expression of Bax” value was “significantly inhibited” and the “gene expression of Caspase3” value is listed as “closer to the NC group”.
